Converted amounts (≈) assume the structure as drawn.

The test system of experiment [1] is OVCAR-3. The experiment in a line: Cytotoxicity against human OVCAR-3 cells after 48 hrs. In kind it is functional, cell-based. To be noted: OVCAR-3, 48 h.
Experiment [2] in a line: Cytotoxicity against human LOX cells after 48 hrs. The experiment is classed as functional, cell-based.

For orientation: IC50 means the midpoint of a concentration-inhibition curve. On to `CCCC/C=C\C=C/CCCCCCCC[C@@H]1CC[C@@H]([C@@H]2CC[C@@H](CC(=O)O)OO2)O1` [STOLONIC ACID B], for which the IC50 in experiment [1] was determined as 0.1 µg/mL (≈ 0.229 µM); in experiment [2], 0.05 µg/mL (≈ 0.115 µM).
In the case of `CCCC/C=C/C=C/CCCCCCCC[C@@H]1CC[C@@H]([C@@H]2CC[C@@H](CC(=O)O)OO2)O1` [STOLONIC ACID A], the values for the 50% inhibitory concentration (IC50) in experiment [1] and in experiment [2] were 0.1 µg/mL (≈ 0.229 µM) and 0.05 µg/mL (≈ 0.115 µM), respectively.

For the origin of these results see ChEMBL document CHEMBL1155606, “Stolonic acids A and B, new cytotoxic cyclic peroxides from an Indian Ocean ascidian Stolonica species” (J Nat Prod, 2000).
